Reference: PubChem BioAssay AID1996
Converted amounts (≈) assume the structure as drawn.

Conditions: buffer; pH 7.4; 200.0 µM

| Structure (SMILES) | solubility kinetic [µg/mL] |
| --- | --- |
| CC(C)(C)c1csc(NC(=O)c2ccc(Br)o2)n1 | 16 (≈ 48.6 µM) |
| O=C(O)C1CCCN(S(=O)(=O)c2ccccc2[N+](=O)[O-])C1 (configuration not stated) | 36.5 (≈ 116 µM) |
| CCOc1ccc(Nc2ccnc3cc(Cl)ccc23)cc1 | < 0.3 |
| CCC(C)Oc1ccc(C(=O)Nc2ccc(CN3CCOCC3)cc2)cc1 (configuration not stated) | 54.1 (≈ 147 µM) |
| Cc1ccc2nc(NC(=O)c3ccccc3F)sc2c1 | < 0.3 |
| COCCNC(=O)c1cc2c(=O)[nH]c3ccccc3c2s1 | 3.2 (≈ 10.6 µM) |
| CSc1ncnc2sc(C)c(C)c12 | 1.3 (≈ 6.18 µM) |
| CC(=O)Nc1ccc(NC2=CC(=O)c3ccccc3C2=O)cc1 | 1.1 (≈ 3.59 µM) |
| CCOC(Cn1ccc(=O)[nH]c1=O)OCC | > 34.2 |
| Cc1ccc(SCc2ccc(C(=O)N3CCCC3)cc2)cc1 | 31 (≈ 99.5 µM) |
| COCC(C)NC(=O)C1c2ccccc2Oc2ccccc21 (configuration not stated) | 40.1 (≈ 135 µM) |
| O=c1c2[nH]c3ccc(F)cc3c2ncn1CCC1=CCCCC1 | < 0.2 |
| CCOc1ccccc1NC(=S)NCCc1ccc(F)cc1 | 25.4 (≈ 79.8 µM) |
| C=CCn1c(O)c(/C=C2\C=Nc3ccccc32)c(=O)[nH]c1=O | 4 (≈ 13.5 µM) |
| CN(C)/C=C/C(=O)c1ccccc1 | > 26.3 |
| CCOC(=O)CNC(=O)c1ccc(Br)s1 | > 43.8 |
| Cc1ccc(S(=O)(=O)N2CCOCC2)cc1NC(=O)CN1C(=O)NC2(CCCC2)C1=O | > 67.6 |
| CC(=O)c1cccc(NC(=O)C(C)OC(=O)CCc2nc3ccccc3c(=O)[nH]2)c1 (configuration not stated) | > 61.1 |
| COc1ccc(CC(=O)NC(=S)Nc2cccc(CO)c2)cc1 | 49.3 (≈ 149 µM) |
| Cc1ccc(N=C2C(=O)Nc3ccc(Br)cc32)cc1 | 1.1 (≈ 3.49 µM) |
| Cc1ccc(-n2c(C)nn(CC#N)c2=O)cc1 | > 34.2 |
| O=C(NC1CC1)C1CC(=O)N(c2cccc(Cl)c2Cl)C1 (configuration not stated) | > 47 |
| COc1cc(C)c(CN2CC=C(c3ccc(F)cc3)CC2)cc1C | 8.5 (≈ 26.1 µM) |
| CCCC1c2ccsc2CCN1C(=S)NC (configuration not stated) | 29.8 (≈ 117 µM) |
| CSc1cccc(N2C(=O)C3CCCN3C2=S)c1 (configuration not stated) | 36.2 (≈ 130 µM) |

| Structure (SMILES) | solubility kinetic [µg/mL] |
| --- | --- |
| COc1ccc(CCNC(=O)c2cccs2)cc1OC | 33.8 (≈ 116 µM) |
| CC(NC(=O)CN(C)Cc1cccc(F)c1)c1ccccc1 (configuration not stated) | > 45.1 |
| CCCOc1ccc(N/C=C/C(=O)c2ccc(OC)c(OC)c2)cc1 | < 0.7 |
| CCOC(=O)c1cncc(C#CCO)c1 | > 30.8 |
| COCCNC(=S)N(C)C1(c2ccccc2Cl)CCCCC1=O (configuration not stated) | 48.2 (≈ 136 µM) |
| Cc1ccc(NC(=O)CCc2nc3ccccc3s2)c(O)c1 | 8.9 (≈ 28.5 µM) |
| CN(C)CCCNC(=O)C(=O)NCC1CCCO1 (configuration not stated) | > 38.6 |
| O=C(NC1CC2CCC1C2)c1ccco1 (configuration not stated) | 26.3 (≈ 128 µM) |
| Cc1ccc(SCCNC(=O)c2ccc([N+](=O)[O-])c(C)c2)cc1 | 9.5 (≈ 28.8 µM) |
| O=C(Cn1ccc([N+](=O)[O-])n1)NCC1CCCO1 (configuration not stated) | > 38.1 |
| CC(Cc1cccs1)NCc1ccccc1 (configuration not stated) | 22.3 (≈ 96.4 µM) |
| CN(C)S(=O)(=O)c1ccc(C(=O)/C=C/c2cccnc2)cc1 | 3.3 (≈ 10.4 µM) |
| COc1ccc(-n2c(C)nnc2SCC(=O)NC2CC2)cc1 | > 47.8 |
| O=C(CN1C(=O)NC(c2ccccc2)(c2ccccc2)C1=O)NCCNCCO | > 59.5 |
| CC1CCCCC1NC(=O)CN1C(=O)COc2ccccc21 (configuration not stated) | 8.2 (≈ 27.1 µM) |
| Nc1nc(O)c(Sc2ccccc2[N+](=O)[O-])c(=O)[nH]1 | > 42 |
| COC(=O)c1ccc(NC(=S)NCCc2ccc(OC)cc2)cc1 | 0.8 (≈ 2.32 µM) |
| O=C1CCCCCN1CP(=O)(O)CN1CCCCCC1=O | 46.1 (≈ 146 µM) |
| O=Cc1ccc(Oc2ncccn2)cc1 | > 30 |
| O=[N+]([O-])c1ccc(NCc2ccc3c(c2)OCO3)cc1 | < 0.3 |
| C/C(Cc1ccccc1)=N\NC(=O)CNC(=O)c1ccccc1O | > 48.8 |
| CCCCCCOC(=O)Cc1c(C)nc(N)[nH]c1=O | > 40.1 |
| Cl.OC(CN1CCOCC1)Cn1c2c(c3ccccc31)CCCC2 (configuration not stated) | 51.3 |
| Cc1cc(NC(=O)c2ccc3[nH]c(C)c(C)c3c2)ccn1 | 37.6 (≈ 135 µM) |
| CCc1ccc(CN(C)C(C)C(=O)NCc2ccccc2)cc1 (configuration not stated) | 36.5 (≈ 118 µM) |

| Structure (SMILES) | solubility kinetic [µg/mL] |
| --- | --- |
| CCOc1ccc(NC(=O)N(CCN(C)C)C(C)c2cccnc2)cc1 (configuration not stated) | > 53.5 |
| COC(=O)c1cc2cc(Cl)ccc2nc1SC | < 0.6 |
| Cl.O=C(CNCc1cccs1)NC12CC3CC(CC(C3)C1)C2 | 48.1 |
| COc1ccc([N+](=O)[O-])cc1NC(=O)c1cccnc1 | 28.8 (≈ 105 µM) |
| CC(=O)Nc1ccc(S(=O)(=O)N2CC(=O)NC(=O)C2)cc1 | > 46.7 |
| CCc1nc(SCC(=O)OC)c2c3c(sc2n1)COC(C)(C)C3 | 7.4 (≈ 21 µM) |
| CC(C)(C)c1cc(/C=C2\NC(=O)NC2=O)cc(C(C)(C)C)c1O | 6.6 (≈ 20.9 µM) |
| Cl.Nc1cccc2c3c(oc12)CCCC3 | 7.4 |
| O=C1C(Cl)=C(N2CCCCCC2)C(=O)N1c1ccc(Br)cc1 | 15.1 (≈ 39.4 µM) |
| CC(C)C(=O)N1CCN(c2ccccc2NC(=O)c2ccc(Br)o2)CC1 | 52.2 (≈ 124 µM) |
| Cc1cccc(C)c1CC(=O)N1CCOCC1 | 34.6 (≈ 148 µM) |
| O=C(CSCc1ccccc1Cl)Nc1ccc(C(=O)O)cc1 | > 50.4 |
| O=C1C(Cl)=CC(=Nc2ccc([O-])cc2)C=C1Cl.[Na+] | > 43.5 |
| C=CC[N+]1(C)C2CCC1CC(O)C2.[Br-] (configuration not stated) | > 39.3 |
| CCOc1ccc(Br)cc1CN(CC)CC.Cl | > 48.4 |
| CCCCc1ccc(NC(=O)C(C)CC)cc1 (configuration not stated) | 6.7 (≈ 28.7 µM) |
| N#Cc1cccnc1N1CCN(C(=O)COCC(=O)O)CC1 | 41 (≈ 135 µM) |
| COC(=O)C(Cc1ccc(O)cc1)N1Cc2ccccc2C1=O (configuration not stated) | > 46.7 |
| COc1ccc2[nH]cc(CCNS(=O)(=O)c3ccc(C)cc3)c2c1 | 50.6 (≈ 147 µM) |
| CCc1ccc(C(=O)Nc2cc(C)ccc2F)s1 | 16.6 (≈ 63 µM) |
| COc1ccccc1/C=C/C(=O)OCC(=O)NC1CCCCCCC1 | 7.4 (≈ 21.4 µM) |
| CN(C)c1cc(-c2ccc(Br)cc2)oc(=O)c1Cl | 1.1 (≈ 3.35 µM) |
| Cc1ccc(NC(=O)c2cc3ccccc3oc2=N)cc1 | < 0.3 |
| NCCc1c(C(=O)O)[nH]c2ccc([N+](=O)[O-])cc12 | 35.4 (≈ 142 µM) |
| CCC1Oc2ccc(C)cc2N(CC(=O)NCC2CCCO2)C1=O (configuration not stated) | 43.6 (≈ 131 µM) |

| Structure (SMILES) | solubility kinetic [µg/mL] |
| --- | --- |
| O=C(Nc1cccc2c1C(=O)NC2=O)c1ccccc1[N+](=O)[O-] | 6.9 (≈ 22.2 µM) |
| O=C(c1ccc([N+](=O)[O-])o1)N1CCCCCC1 | > 35.7 |
| Cc1cccc(C(=O)NCCC(=O)Nc2ccc(C#N)cc2)c1 | 1.3 (≈ 4.23 µM) |
| CN(C(=O)CSc1cccc[n+]1[O-])c1ccccc1 | 35.5 (≈ 129 µM) |
| N/C(CN1CCCCC1)=N\S(=O)(=O)c1cc(Cl)cc(Cl)c1 | 3.7 (≈ 10.6 µM) |
| Cc1ccc(Oc2ncnc(N)c2[N+](=O)[O-])cc1C | 4.8 (≈ 18.4 µM) |
| NC(=O)c1cc(S(=O)(=O)NCc2ccc(F)cc2)cs1 | 47 (≈ 150 µM) |
| CCc1nc2ccc(N3CCN(C)CC3)cc2nc1CC | 35.2 (≈ 124 µM) |
| Cc1ccc(C(=O)OCC(=O)N2CCOCC2)c(C)c1 | 34 (≈ 123 µM) |
| Cc1ccc(C)c(SCC(=O)NC2CCS(=O)(=O)C2)c1 (configuration not stated) | > 47 |
| CC(C)NC(=S)N1CCCN(c2ncccc2[N+](=O)[O-])CC1 | > 48.5 |
| O=C(NCc1ccc2c(c1)OCO2)Nc1ccc2ccccc2c1 | 1.3 (≈ 4.06 µM) |
| Cc1ccc2c(c1)N(CC(=O)N1CCCC1)C(=O)CO2 | > 41.1 |
| Cc1ccc(F)cc1NC(=O)CCOc1ccccc1 | 8.3 (≈ 30.4 µM) |
| COc1ccc2oc(=O)c(C(=O)Nc3ccccc3C)cc2c1 | 2.3 (≈ 7.44 µM) |
| O=C(Nc1cc(Cl)ccc1-n1cncn1)C1CC1 | > 39.4 |
| CCOC(=O)c1sc(NC(=O)CN2CC(C)OC(C)C2)nc1C (configuration not stated) | 49 (≈ 144 µM) |
| Cc1ccc(NC(=O)Nc2ncnc3nc[nH]c23)cc1 | 6.3 (≈ 23.5 µM) |
| O=C(Nc1cccnc1Cl)c1ccc(=O)oc1 | > 37.6 |
| CCOc1ccccc1NC(=O)COc1ccc2ccc(=O)oc2c1 | 0.9 (≈ 2.65 µM) |
| Cc1ccc(S(N)(=O)=O)c(C)c1N1CCCC1=O | > 40.2 |
| CN(C(=O)CSc1nncn1-c1ccccc1)c1ccccc1 | > 48.7 |
| O=C(CN1CCCCC1)N1CCc2ccccc21 | 36.6 (≈ 150 µM) |
| CCCNS(=O)(=O)c1ccc(OCC(=O)NCC2CCCO2)cc1 (configuration not stated) | 51.2 (≈ 144 µM) |
| CNC(=S)/N=C(\Nc1ccc(C)cc1)c1ccccc1 | 1.3 (≈ 4.59 µM) |

| Structure (SMILES) | solubility kinetic [µg/mL] |
| --- | --- |
| Nc1ncccc1C(=O)OCC(=O)NC1CCCCCC1 | 38 (≈ 130 µM) |
| COc1cc(/C=C/C(=O)OCC(=O)NCCC2=CCCCC2)cc(OC)c1OC | 33.3 (≈ 82.5 µM) |
| NC(=S)Cc1ccc(Cl)cc1Cl | 30.9 (≈ 140 µM) |
| Cc1cnc(C(=O)OCC(=O)Nc2cccc(S(=O)(=O)N3CCOCC3)c2)cn1 | > 63.1 |
| COc1ccc2[nH]c(=S)cc(C)c2c1 | 8.9 (≈ 43.4 µM) |
| Nc1cccc(-c2nc3ccc(C(=O)c4ccccc4)cc3[nH]2)c1 | 20.3 (≈ 64.8 µM) |
| Cc1ccc(OCc2ccccc2Br)c([N+](=O)[O-])n1 | 1.7 (≈ 5.26 µM) |
| CC(C)(C)c1ccc(C(=O)Nc2ccc(F)cc2)s1 | < 0.6 |
| CC(O)CNCCOc1cccc(Oc2ccccc2)c1.O=C(O)C(=O)O (configuration not stated) | 45.6 |
| O=C1COc2ccc(NC(=O)c3ccccc3C(=O)O)cc2N1 | 40.5 (≈ 130 µM) |
| Cc1cc(NCC2CCCCC2)nc2ccccc12 | 21.4 (≈ 84.1 µM) |
| CN(C)/C(=N\S(=O)(=O)c1ccccc1)c1ccc(Cl)cc1 | > 48.4 |
| Cn1ccnc1C(OC(=O)c1ccc(Cl)cc1)C(F)(F)F (configuration not stated) | > 47.8 |
| C=C(C)c1ccccc1NC(=O)CCN1C(=O)c2ccccc2S1(=O)=O | > 55.6 |
| O=[N+]([O-])c1ccc(NCc2ccc(Cl)cc2)nc1 | 1.2 (≈ 4.55 µM) |
| COc1cc(C(NC(C)=O)NC(C)=O)ccc1OCc1ccccc1 | > 51.4 |
| CCc1ccc(Nc2ncc3c(n2)CC(C)(C)CC3=O)cc1 | 1.1 (≈ 3.72 µM) |
| O=C(Nc1c[nH]c(=O)[nH]c1=O)c1cc([N+](=O)[O-])cc([N+](=O)[O-])c1 | 16.7 (≈ 52 µM) |
| Cc1cc(F)ccc1NC(=O)C1CSC2(C)CCC(=O)N12 (configuration not stated) | > 46.3 |
| CCOC(=O)C1CCCN(C(=O)CN2C(=O)c3ccccc3S2(=O)=O)C1 (configuration not stated) | > 57.1 |
| Cc1nc(=O)c(-c2ccccc2)c(C)n1-c1ccccc1Cl | > 46.6 |
| O=c1[nH]c(-c2ccccc2)c(-c2ccccc2)nc1[N+](=O)[O-] | 42.1 (≈ 144 µM) |
